Values after ≈ are worked out from the molar mass of the structure shown. Read-outs that look alike come from different tables or passages of the source.
Legend:
[1] = tested on: wild-type E. coli ATCC 25922; test: microbe, parasite or virus in culture; assay type: cell-based, Escherichia coli; conditions: for MICcombo: antibiotic with dUSTBβP 3 at 8 μg/mL; for MIC: Escherichia coli, ATCC25922, 18 h, read-out: MICantibiotic
Procedure: (§1) The adjuvant activities of dUSTBβPs were evaluated using checkerboard assay as previously described ([Berry et al., 2019]). Overnight-grown bacterial culture diluted in saline to 0.5 McFarland turbidity was successively diluted 1:50 in MHB to achieve a final concentration of 5 × 10^5 CFU/mL for inoculation. The antibiotic and adjuvant were serially diluted 2-fold along the x-axis and y-axis, respectively, resulting in varying concentrations of both agents in each well. Subsequently, the 96-well plate was incubated with equal volumes of bacterial inoculum at 37°C for 18 h. Confirmation of turbidity was done using an EMax Plus microplate reader (Molecular Devices, United States) at a wavelength of 590 nm. Wells comprising MHB alone or in the presence of bacterial cells were used as negative or positive controls, respectively. Fractional inhibitory concentration index (FICI) is determined by adding the FICs of both antibiotic and adjuvant. The FIC of the antibiotic is calculated by dividing the MIC of the antibiotic in the presence of the adjuvant by the MIC of the antibiotic alone. Similarly, the FIC of the adjuvant is calculated by dividing the MIC of the adjuvant in the presence of the antibiotic by the MIC of the adjuvant alone. FICI ≤ 0.5, 0.5 < x ≤ 4, and >4 were deemed synergistic, additive, and antagonistic, respectively ([Meletiadis et al., 2010]).

[2] = tested on: wild-type P. aeruginosa PAO1; test: microbe, parasite or virus in culture; assay type: cell-based, Pseudomonas aeruginosa; conditions: for MICcombo: antibiotic with dUSTBβP 3 at 8 μg/mL; for MIC: Pseudomonas aeruginosa, read-out: MICantibiotic
Text: as §1, with “Overnight-grown” for “The adjuvant activities of dUSTBβPs were evaluated using checkerboard assay as previously described ([Berry et al., 2019]). Overnight-grown”, “Subsequently, the 96-well plate was incubated with equal volumes of bacterial inoculum at 37°C for 18 h.” left out, “alone.” for “alone. FICI ≤ 0.5, 0.5 < x ≤ 4, and >4 were deemed synergistic, additive, and antagonistic, respectively ([Meletiadis et al., 2010]).”

[3] = tested on: wild-type A. baumannii ATCC 17978; test: Checkerboard assay; assay type: cell-based, Acinetobacter baumannii; conditions: for MICcombo: antibiotic with dUSTBβP 3 at 8 μg/mL; for MIC: Acinetobacter baumannii, ATCC17978, 18 h, read-out: MICantibiotic
Text: as §1, with “Overnight-grown” for “The adjuvant activities of dUSTBβPs were evaluated using checkerboard assay as previously described ([Berry et al., 2019]). Overnight-grown”, “Subsequently, the 96-well plate was incubated with equal volumes of bacterial inoculum at 37°C for 18 h.” left out, “alone.” for “alone. FICI ≤ 0.5, 0.5 < x ≤ 4, and >4 were deemed synergistic, additive, and antagonistic, respectively ([Meletiadis et al., 2010]).”

[4] = tested on: MDR A. baumannii clinical isolates; test: Resistance phenotype (MICs of antibiotics) of MDR clinical isolates; assay type: cell-based, Acinetobacter baumannii; conditions: Acinetobacter baumannii, read-out: MIC
[5] = tested on: MDR E. coli clinical isolates; test: as above; assay type: cell-based, Escherichia coli; conditions: Escherichia coli, read-out: MIC
[6] = tested on: MDR E. cloacae clinical isolates; test: as above; assay type: cell-based, Enterobacter cloacae; conditions: Enterobacter cloacae, read-out: MIC
[7] = tested on: MDR K. pneumoniae clinical isolates; test: as above; assay type: cell-based, Klebsiella pneumoniae; conditions: Klebsiella pneumoniae, read-out: MIC
[8] = tested on: MDR P. aeruginosa clinical isolates; test: as above; assay type: cell-based, Pseudomonas aeruginosa; conditions: Pseudomonas aeruginosa, read-out: MIC
[9] = ATCC 25922, antibiotic alone (Supplementary Table 7)
[10] = 18 h, PAO1, antibiotic alone (Supplementary Table 7)
[11] = ATCC 17978, antibiotic alone (Supplementary Table 7)

MICcombo ([1]; ATCC 25922) [µg/mL]	MIC [1, 9] [µg/mL]	MICcombo ([2]; PAO1) [µg/mL]	MIC [2, 10] [µg/mL]	MICcombo ([3]; ATCC 17978) [µg/mL]	MIC [3, 11] [µg/mL]	MIC ([4]; AB027) [µg/mL]	MIC ([4]; AB031) [µg/mL]	MIC ([5]; 94393 (mcr-1 +)) [µg/mL]	MIC ([5]; 94474 (mcr-1 +)) [µg/mL]	MIC [5]; 107115 [µg/mL]	MIC [6]; 117029 [µg/mL]	MIC [7]; 113250 [µg/mL]	MIC [7]; 113254 [µg/mL]	MIC [7]; 116381 [µg/mL]	MIC ([8]; 259-96196) [µg/mL]	MIC ([8]; 262-101856) [µg/mL]	MIC ([8]; 264-104354) [µg/mL]	MIC [8]; 91433 [µg/mL]	MIC [4]; 92247 [µg/mL]	SMILES	further results
16	256	256	1020 (≈ 3040 µM)	64	512	–	–	–	–	–	–	–	–	–	–	–	–	–	–	CC(=O)NC[C@H]1CN(c2ccc(N3CCOCC3)c(F)c2)C(=O)O1 [Linezolid]	–
–	–	–	–	–	–	0.5 (≈ 0.895 µM)	0.25 (≈ 0.448 µM)	0.5 (≈ 0.895 µM)	1 (≈ 1.79 µM)	0.125 (≈ 0.224 µM)	0.5 (≈ 0.895 µM)	1 (≈ 1.79 µM)	0.5 (≈ 0.895 µM)	0.5 (≈ 0.895 µM)	8 (≈ 14.3 µM)	8 (≈ 14.3 µM)	8 (≈ 14.3 µM)	16 (≈ 28.6 µM)	–	CN(C)[C@@H]1C(O)=C(C(N)=O)C(=O)[C@@]2(O)C(O)=C3C(=O)c4c(O)c(NC(=O)CN5CCCC5)cc(F)c4C[C@H]3C[C@@H]12 [ERC, eravacycline]	MIC ([4]; LAC-4): 0.06 µg/mL (≈ 0.107 µM); MIC [8]; 114228: 8 µg/mL (≈ 14.3 µM)
–	–	–	–	–	–	1 (≈ 1.8 µM)	2 (≈ 3.59 µM)	4 (≈ 7.19 µM)	16 (≈ 28.7 µM)	4 (≈ 7.19 µM)	4 (≈ 7.19 µM)	2 (≈ 3.59 µM)	4 (≈ 7.19 µM)	4 (≈ 7.19 µM)	64 (≈ 115 µM)	64 (≈ 115 µM)	64 (≈ 115 µM)	128 (≈ 230 µM)	–	CN(C)c1cc(CNCC(C)(C)C)c(O)c2c1C[C@H]1C[C@H]3[C@H](N(C)C)C(O)=C(C(N)=O)C(=O)[C@@]3(O)C(O)=C1C2=O [OMC, omadacycline]	MIC ([4]; LAC-4): 1 µg/mL (≈ 1.8 µM); MIC [8]; 114228: 16 µg/mL (≈ 28.7 µM)
–	–	–	–	–	–	–	4 (≈ 8.32 µM)	≤ 0.25	≤ 0.25	> 64	≤ 0.25	1 (≈ 2.08 µM)	1 (≈ 2.08 µM)	16 (≈ 33.3 µM)	> 64	32 (≈ 66.6 µM)	32 (≈ 66.6 µM)	16 (≈ 33.3 µM)	4 (≈ 8.32 µM)	CO/N=C(\C(=O)N[C@@H]1C(=O)N2C(C(=O)[O-])=C(C[N+]3(C)CCCC3)CS[C@H]12)c1csc(N)n1 [CPM, cefepime]	MIC [6]; 118564: 0.25 µg/mL (≈ 0.52 µM); MIC [6]; 121187: 0.25 µg/mL (≈ 0.52 µM)
–	–	–	–	–	–	–	–	4 (≈ 9.36 µM)	16 (≈ 37.4 µM)	> 32	> 32	1 (≈ 2.34 µM)	1 (≈ 2.34 µM)	16 (≈ 37.4 µM)	> 32	> 32	> 32	> 32	32 (≈ 74.9 µM)	CO[C@@]1(NC(=O)Cc2cccs2)C(=O)N2C(C(=O)O)=C(COC(N)=O)CS[C@@H]21 [FOX, cefoxitin]	MIC [6]; 118564: > 32 µg/mL; MIC [6]; 121187: > 32 µg/mL

The next lines start with the molecule.

SMILES	MICcombo ([1]; ATCC 25922) [µg/mL]	MIC [1, 9] [µg/mL]	MICcombo ([2]; PAO1) [µg/mL]	MIC [2, 10] [µg/mL]	MICcombo ([3]; ATCC 17978) [µg/mL]	MIC [3, 11] [µg/mL]	MIC ([4]; AB027) [µg/mL]	MIC ([4]; AB031) [µg/mL]	MIC ([5]; 94393 (mcr-1 +)) [µg/mL]	MIC ([5]; 94474 (mcr-1 +)) [µg/mL]	MIC [5]; 107115 [µg/mL]	MIC [6]; 117029 [µg/mL]	MIC [7]; 113250 [µg/mL]	MIC [7]; 113254 [µg/mL]	MIC [7]; 116381 [µg/mL]	MIC ([8]; 259-96196) [µg/mL]	MIC ([8]; 262-101856) [µg/mL]	MIC ([8]; 264-104354) [µg/mL]	MIC [8]; 91433 [µg/mL]	MIC [4]; 92247 [µg/mL]	further results
C[C@@H]1O[C@@H]1P(=O)(O)O [Fosfomycin]	8	16	2	32 (≈ 232 µM)	256	> 256	–	–	–	–	–	–	–	–	–	–	–	–	–	–	–
C=C[C@]1(C)C[C@@H](OC(=O)CO)[C@]2(C)[C@H](C)CC[C@]3(CCC(=O)[C@H]32)[C@@H](C)[C@@H]1O [Pleuromutilin]	0.5	64	256	1020 (≈ 2710 µM)	4	256	–	–	–	–	–	–	–	–	–	–	–	–	–	–	–
CN[C@H](CC(C)C)C(=O)N[C@H]1C(=O)N[C@@H](CC(N)=O)C(=O)N[C@H]2C(=O)N[C@H]3C(=O)N[C@H](C(=O)N[C@H](C(=O)O)c4cc(O)cc(O)c4-c4cc3ccc4O)[C@H](O)c3ccc(c(Cl)c3)Oc3cc2cc(c3O[C@@H]2O[C@H](CO)[C@@H](O)[C@H](O)[C@H]2O[C@H]2C[C@](C)(N)[C@H](O)[C@H](C)O2)Oc2ccc(cc2Cl)[C@H]1O [Vancomycin]	64	–	256	–	32	–	–	–	–	–	–	–	–	–	–	–	–	–	–	–	MIC [1]: 128 µg/mL; MIC ([2]; PAO1, 18 h): 256 µg/mL (≈ 177 µM); MIC [3]: > 128 µg/mL
CCC[C@@H]1C[C@@H](C(=O)N[C@@H]([C@H]2O[C@H](SC)[C@H](O)[C@@H](O)[C@H]2O)[C@H](C)Cl)N(C)C1 [Clindamycin]	4	64	128	2050 (≈ 4820 µM)	64	512	–	–	–	–	–	–	–	–	–	–	–	–	–	–	–
CCN1CCN(C(=O)N[C@@H](C(=O)N[C@@H]2C(=O)N3[C@@H]2SC(C)(C)[C@@H]3C(=O)O)c2ccccc2)C(=O)C1=O [Piperacillin]	0.125	2	4	4 (≈ 7.73 µM)	32	> 128	–	–	–	–	–	–	–	–	–	–	–	–	–	–	–
C[C@@H](O)[C@H]1C(=O)N2C(C(=O)O)=C(S[C@@H]3CN[C@H](C(=O)N(C)C)C3)[C@H](C)[C@H]12 [MER, meropenem]	–	–	–	–	–	–	16 (≈ 41.7 µM)	1 (≈ 2.61 µM)	≤ 0.03	≤ 0.03	32 (≈ 83.4 µM)	≤ 0.03	≤ 0.03	≤ 0.03	≤ 0.03	1020 (≈ 2670 µM)	32 (≈ 83.4 µM)	64 (≈ 167 µM)	16 (≈ 41.7 µM)	4 (≈ 10.4 µM)	MIC ([4]; LAC-4): < 1 µg/mL; MIC [6]; 118564: 0.12 µg/mL (≈ 0.313 µM); MIC [6]; 121187: 0.06 µg/mL (≈ 0.156 µM); MIC [8]; 114228: 8 µg/mL (≈ 20.9 µM)
Cc1nnc(SCC2=C(C(=O)O)N3C(=O)[C@@H](NC(=O)Cn4cnnn4)[C@H]3SC2)s1 [CFZ, cefazolin]	–	–	–	–	–	–	> 128	> 128	1 (≈ 2.2 µM)	4 (≈ 8.8 µM)	> 128	> 128	1 (≈ 2.2 µM)	1 (≈ 2.2 µM)	> 128	> 128	> 128	> 128	> 128	128 (≈ 282 µM)	MIC [6]; 118564: > 128 µg/mL; MIC [6]; 121187: 32 µg/mL (≈ 70.4 µM)

From publication PMC8733726, “Dioctanoyl Ultrashort Tetrabasic β-Peptides Sensitize Multidrug-Resistant Gram-Negative Bacteria to Novobiocin and Rifampicin” (Frontiers in Microbiology, 2021)
